Source: US20220235065A1 (Epizyme, Inc., priority 2016, published 2022)
Counter-ions that a name gives are not always drawn.

How the values were obtained:
[1] = test system: H3K9me2 in MDA-MB-231 cells; test: MDA-MB-231 H3K9me2 in-cell western assay; format: cell-based; settings: Homo sapiens, read-out: EHMT2 ICW (IC50 μM)
Text: MDA-MB-231 cell line was purchased from ATCC (Manassas, Va., USA). RPMI/Glutamax medium, Penicillin-Streptomycin, Heat Inactivated Fetal Bovine Serum, and D-PBS were purchased from Life Technologies (Grand Island, N.Y., USA). Odyssey blocking buffer, 800CW goat anti-mouse IgG (H+L) antibody, and Licor Odyssey Infrared Scanner were purchased from Licor Biosciences, Lincoln, Nebr., USA. H3K9me2 mouse monoclonal antibody (Cat #1220) was purchased from Abcam (Cambridge, Mass., USA). 16% Paraformaldehyde was purchased from Electron Microscopy Sciences, Hatfield, Pa., USA). MDA-MB-231 cells were maintained in complete growth medium (RPMI supplemented with 10% v/v heat inactivated fetal bovine serum) and cultured at 37° C. under 5% CO2. UNC0638 was purchased from Sigma-Aldrich (St. Louis, Mo., USA).
General Procedure for MDA-MB-231 HEK9me2 In-Cell Western Assay.
Compound (100 nL) was added directly to 384-well cell plate. MDA-MB-231 cells (ATCC) were seeded in assay medium (RPMI/Glutamax supplemented with 10% v/v heat inactivated fetal bovine serum and 1% Penicillin/Streptomycin, Life Technologies) at a concentration of 3,000 cells per well to a Poly-D-Lysine coated 384-well cell culture plate with 50 μL per well. Plates were incubated at 37° C., 5% CO2 for 48 hours (BD Biosciences 356697). Plates were incubated at room temperature for 30 minutes and then incubated at 37° C., 5% CO2 for additional 48 hours. After the incubation, 50 μL per well of 8% paraformaldehyde (Electron Microscopy Sciences) in PBS was added to the plates and incubated at room temperature for 20 minutes. Plates were transferred to a Biotek 406 plate washer and washed 2 times with 100 μL per well of wash buffer (1×PBS containing 0.3% Triton X-100 (v/v)). Next, 60 μL per well of Odyssey blocking buffer (Licor Biosciences) was added to each plate and incubated for 1 hour at room temperature. Blocking buffer was removed and 20 μL of monoclonal primary antibody α-H3K9me2 (Abcam) diluted 1:800 in Odyssey buffer with 0.1% Tween 20 (v/v) were added and plates were incubated overnight (16 hours) at 4° C. Plates were washed 5 times with 100 μL per well of wash buffer. Next 20 μL per well of secondary antibody was added (1:500 800CW […] anti-mouse IgG (H+L) antibody (Licor Biosciences), 1:1000 DRAQ5 (Cell Signaling Technology) in Odyssey buffer with 0.1% Tween 20 (v/v)) and incubated for 1 hour at room temperature. The plates were washed 5 times with 100 μL per well wash buffer then 2 times with 100 μL per well of water. Plates were allowed to dry at room temperature then imaged on a Licor Odyssey Infrared Scanner (Licor Biosciences) which measured integrated intensity at 700 nm and 800 nm wavelengths. Both 700 and 800 channels were scanned.
% Inhibition Calculation.
First, the ratio for each well was determined by
Each plate included fourteen control wells of DMSO only treatment (Minimum Inhibition) as well as fourteen control wells (background wells) for maximum inhibition treated with control compound UNC0638 (Background wells).
The average of the ratio values for each well was calculated and used to determine the percent inhibition for each test well in the plate. Control compound was serially diluted three-fold in DMSO for a total of 10 test concentrations beginning at 1 μM. Percent inhibition was calculated as: […]
IC50 curves were generated using triplicate wells per concentration of compound. The IC50 is the concentration of compound at which measured methylation is inhibited by 50% as interpolated from the dose response curves. IC50 values were calculated using a non-linear regression (variable slope-four parameter fit model) with by the following formula
where Top is fixed at 100% and Bottom is fixed to 0%, [I]=concentration of inhibitor, IC50=half maximal inhibitory concentration and n=Hill Slope.

[2] = biological target: T1, EHMT1 (Homo sapiens, UniProt Q9H9B1); test: EHMT1 PEP (EHMT1 peptide enzyme assay); format: biochemical; settings: peptide substrate enzyme assay
T1 sequence (Q9H9B1 1-1298): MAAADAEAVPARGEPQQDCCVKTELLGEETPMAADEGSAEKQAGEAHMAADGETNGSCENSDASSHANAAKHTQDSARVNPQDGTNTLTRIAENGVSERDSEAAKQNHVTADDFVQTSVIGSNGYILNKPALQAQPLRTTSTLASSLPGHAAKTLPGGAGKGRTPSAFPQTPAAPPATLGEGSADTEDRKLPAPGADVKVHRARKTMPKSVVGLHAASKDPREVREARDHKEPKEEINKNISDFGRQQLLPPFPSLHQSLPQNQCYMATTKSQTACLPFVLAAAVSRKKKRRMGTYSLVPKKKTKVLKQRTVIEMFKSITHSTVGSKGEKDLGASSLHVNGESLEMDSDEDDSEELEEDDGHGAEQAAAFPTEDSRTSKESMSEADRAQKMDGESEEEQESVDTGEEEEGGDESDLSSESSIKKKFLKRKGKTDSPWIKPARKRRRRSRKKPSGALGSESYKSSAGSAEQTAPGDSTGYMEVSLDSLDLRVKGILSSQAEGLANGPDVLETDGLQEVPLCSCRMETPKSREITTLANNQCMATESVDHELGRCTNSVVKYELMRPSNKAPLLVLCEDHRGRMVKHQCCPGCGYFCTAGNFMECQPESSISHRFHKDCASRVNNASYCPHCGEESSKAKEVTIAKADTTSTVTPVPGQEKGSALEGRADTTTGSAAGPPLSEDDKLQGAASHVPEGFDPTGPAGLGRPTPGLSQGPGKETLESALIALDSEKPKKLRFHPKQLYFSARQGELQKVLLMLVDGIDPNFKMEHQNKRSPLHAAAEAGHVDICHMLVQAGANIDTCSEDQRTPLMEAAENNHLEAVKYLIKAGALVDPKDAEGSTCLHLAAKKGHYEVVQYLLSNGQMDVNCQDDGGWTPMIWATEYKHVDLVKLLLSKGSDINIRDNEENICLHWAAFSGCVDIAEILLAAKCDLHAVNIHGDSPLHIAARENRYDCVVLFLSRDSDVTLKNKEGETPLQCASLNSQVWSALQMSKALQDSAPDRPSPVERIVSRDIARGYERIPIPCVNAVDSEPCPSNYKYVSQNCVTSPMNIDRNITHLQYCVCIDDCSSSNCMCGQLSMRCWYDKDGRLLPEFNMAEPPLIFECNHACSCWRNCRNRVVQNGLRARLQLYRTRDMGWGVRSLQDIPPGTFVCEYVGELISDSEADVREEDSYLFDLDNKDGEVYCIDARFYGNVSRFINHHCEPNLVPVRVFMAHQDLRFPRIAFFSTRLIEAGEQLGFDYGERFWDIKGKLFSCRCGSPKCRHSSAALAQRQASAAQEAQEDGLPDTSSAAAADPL

Row | SMILES | IC50 [1] [µM] | IC50 [2] [µM]
1 | CNc1cc(C)nc(Nc2ccc(OC)c(-c3cc(C4CC4)on3)c2)n1 [Compound 13] | 1 to 10 | 0.1 to 1
2 | CNc1cc(C)nc(Nc2ccc(OC)c(-n3cc(C4CC4)cn3)c2)n1 [Compound 14, 2-N-[3-(4-cyclopropyl-1H-pyrazol-1-yl)-4-methoxyphenyl]-4-N,6-dimethylpyrimidine-2,4-diamine] | 1 to 10 | 0.1 to 1
3 | CNc1cc(C)nc(Nc2cnc(OC)c(-n3ncc4c3CCNC4)c2)n1 [Compound 19] | 1 to 10 | 1 to 10
4 | CNc1cc(C)nc(Nc2ccc(OC)c(-n3cc4c(n3)CNCC4)c2)n1 [Compound 22, 2-N-(4-methoxy-3-[2H,4H,5H,6H,7H-pyrazolo[3,4-c]pyridin-2-yl]phenyl)-4-N,6-dimethylpyrimidine-2,4-diamine hydrochloride] | > 10 | 1 to 10
5 | CNc1cc(C)nc(Nc2ccc(OC)c(-n3cc(CN)cn3)c2)n1 [Compound 23, 2-N-[3-[4-(aminomethyl)-1H-pyrazol-1-yl]-4-methoxyphenyl]-4-N,6-dimethylpyrimidine-2,4-diamine; trifluoroacetic acid] | 1 to 10 | < 0.1
6 | CNc1cc(C)nc(Nc2ccc(OC)c(-n3nccc3CN)c2)n1 [Compound 24] | > 10 | 1 to 10
7 | CNc1cc(C)nc(Nc2ccc(OC)c(-n3ncc4c3CCCC4)c2)n1 [Compound 26, 2-N-[4-methoxy-3-(4,5,6,7-tetrahydro-1H-indazol-1-yl)phenyl]-4-N,6-dimethylpyrimidine-2,4-diamine trifluoroacetic acid] | > 10 | 1 to 10
8 | CNc1nc(Nc2ccc(OC)c(-n3ncc4c3CCNC4)c2)nc(C)c1F [Compound 28, 5-fluoro-2-N-(4-methoxy-3-[1H,4H,5H,6H,7H-pyrazolo[4,3-c]pyridin-1-yl]phenyl)-4-N,6-dimethylpyrimidine-2,4-diamine trifluoroacetic acid] | 1 to 10 | 1 to 10
9 | CNc1cc(C)nc(Nc2ccc(OC)c(-c3nnc4n3CCN(C)C4)c2)n1 [Compound 31] | > 10 | > 10
10 | CNc1cc(C)nc(Nc2ccc(OC)c(-n3ncc4c3CCCN4)c2)n1 [Compound 32] | > 10 | > 10
11 | CNc1cc(C)nc(Nc2ccc(OC)c(-c3cccc4[nH]ncc34)c2)n1 [Compound 37, 2-N-[3-(1H-indazol-4-yl)-4-methoxyphenyl]-4-N,6-dimethylpyrimidine-2,4-diamine; trifluoroacetic acid] | > 10 | > 10
12 | CNc1cc(C)nc(Nc2ccc(OC)c(-c3c(C)nc4cnccn34)c2)n1 [Compound 39] | > 10 | > 10
13 | CCc1ccc(Nc2nc(C)cc(NC)n2)cc1C(=O)Nc1cccnc1 [Compound 244] | > 10 | > 10

Next, values leading:

Row | IC50 [1] [µM] | IC50 [2] [µM] | SMILES
14 | > 10 | > 10 | CNc1cc(C)nc(Nc2ccc(OC)c(-n3cccn3)c2)n1 [Compound 15, 2-N-[4-methoxy-3-(1H-pyrazol-1-yl)phenyl]-4-N,6-dimethylpyrimidine-2,4-diamine; trifluoroacetic acid]
15 | > 10 | > 10 | CNc1cc(C)nc(Nc2ccc(OC)c(-c3nnc4n3CCNC4)c2)n1 [Compound 21]
16 | 1 to 10 | 0.1 to 1 | CNc1nc(Nc2ccc(OC)c(-n3cc4c(n3)CCNC4)c2)nc(C)c1F [Compound 27, 5-fluoro-2-N-(4-methoxy-3-[2H,4H,5H,6H,7H-pyrazolo[4,3-c]pyridin-2-yl]phenyl)-4-N,6-dimethylpyrimidine-2,4-diamine trifluoroacetic acid]
17 | > 10 | > 10 | CNc1cc(C)nc(Nc2ccc(OC)c(-c3c(C)nc4n3CCNC4)c2)n1 [Compound 30]
18 | > 10 | > 10 | CNc1cc(C)nc(Nc2ccc(OC)c(-c3cccc4[nH]ccc34)c2)n1 [Compound 33, 2-N-[3-(1H-indol-4-yl)-4-methoxyphenyl]-4-N,6-dimethylpyrimidine-2,4-diamine hydrochloride]
19 | 1 to 10 | 1 to 10 | CNc1cc(C)nc(Nc2ccc(OC)c(-n3ncc4cnccc43)c2)n1 [Compound 35, 2-N-(4-methoxy-3-[1H-pyrazolo[4,3-c]pyridin-1-yl]phenyl)-4-N,6-dimethylpyrimidine-2,4-diamine; trifluoroacetic acid]
20 | > 10 | 1 to 10 | CNc1cc(C)nc(Nc2ccc(OC)c(-n3ncc4ccncc43)c2)n1 [Compound 36]
21 | > 10 | 1 to 10 | CNc1cc(C)nc(Nc2ccc(OC)c(-c3nc4cnccn4n3)c2)n1 [Compound 38]
22 | > 10 | > 10 | CNc1cc(C)nc(Nc2ccc(Cl)c(C(=O)Nc3ccnnc3)c2)n1 [Compound 245]
23 | 1 to 10 | 0.1 to 1 | CNc1cc(C)nc(Nc2ccc(Cl)c(C(=O)Nc3nccs3)c2)n1 [Compound 246]
24 | > 10 | 1 to 10 | Cc1cc(NC2CCNCC2)ncc1-c1cc2[nH]ccc2cn1 [Compound 247]
25 | 1 to 10 | 0.1 to 1 | CNc1cc(C)nc(Nc2ccc(Cl)c(C(=O)Nc3cnccn3)c2)n1 [Compound 251]
26 | 0.1 to 1 | < 0.1 | CNc1cc(C)nc(Nc2ccc(Cl)c(-c3cc4[nH]ccc4cn3)c2)n1 [Compound 255]
27 | 0.1 to 1 | < 0.1 | CNc1cc(C)nc(Nc2ccc(C)c(-c3cc4[nH]ccc4cn3)c2)n1 [Compound 256]
28 | 1 to 10 | 0.1 to 1 | CNc1nc2cc(-c3cc4[nH]ccc4cn3)c(C)cc2n1C [Compound 257]
